For 52 compounds, Activity results are on record in ChEMBL document CHEMBL3046639, “Syntheses of tetrahydronaphthalenes. Part II” (Tetrahedron, 1994).

A short description of the assay: Pre-emergence herbicidal activity against narrowleaf weed at 0.5 lb/acre. In kind it is functional.

Calls of active or inactive are those of the source. The rule behind the calls is not given here.

As to `Cc1cc(C)c2c(c1)C(C)(C)CCC2`, the outcome was inactive.

As to `Fc1ccc2c(c1)CCCC21CCCCC1`, the result was inactive.

As for `CC(=O)c1c(F)cc2c(c1F)CCCC2(C)C`, the outcome was inactive.

As to `CC(C)C1(C)CCCc2c1cc([N+](=O)[O-])c(N(C)C)c2[N+](=O)[O-]` (configuration not stated), the result was inactive.

On to `COc1c([N+](=O)[O-])cc([N+](=O)[O-])c2c1C(C)(C)CCC2`, for which the result was inactive.

Regarding `CCCC1(CCC)CCCc2cc(N(C)C)c([N+](=O)[O-])cc21`, the result was inactive.

For the compound `COc1ccc(C(=O)O)c2c1C(C)(C)CCC2`, the outcome was inactive.

As to `CC1(C)CCCc2c([N+](=O)[O-])cc([N+](=O)[O-])c(F)c21`, the result was inactive.

On to `COc1ccc(C(C)=O)c2c1C(C)(C)CCC2`, for which the outcome was inactive.

`CC(C)C1(C)CCCc2c1cc([N+](=O)[O-])c(F)c2[N+](=O)[O-]` (configuration not stated): the result was inactive.

Turning to `CCCC1(CCC)CCCc2c1cc([N+](=O)[O-])c(N(C)C)c2[N+](=O)[O-]`, the result was inactive.

Take `COc1cc2c(cc1C(C)=O)C(C)(C)CCC2`: the result was inactive.

With `CCCC1(CCC)CCCc2c1cc([N+](=O)[O-])c(NC(CC)CC)c2[N+](=O)[O-]`, the outcome was inactive.

On to `COc1c([N+](=O)[O-])cc2c(c1[N+](=O)[O-])CCCC2(C)C`, for which the outcome was inactive.

In the case of `CCC(=O)c1c(C)cc2c(c1C)CCCC2(C)C`, the result was inactive.

With `CCSc1c([N+](=O)[O-])cc2c(c1[N+](=O)[O-])CCCC2(C)C`, the result was inactive.

With `CN(C)c1c([N+](=O)[O-])cc2c(c1[N+](=O)[O-])CCCC2(C)C`, the outcome was inactive.

For the compound `COC(=O)c1c(C)cc2c(c1C)CCCC2(C)C`, the result was Active.

On to `CCN(CC)c1c([N+](=O)[O-])cc2c(c1[N+](=O)[O-])CCCC2(C)C`, for which the outcome was inactive.

Regarding `CCCC1(CCC)CCCc2cc(F)ccc21`, the result was inactive.

Consider `COC(=O)c1ccc(OC)c2c1CCCC2(C)C`, for which the result was inactive.

Consider `Cc1cc2c(c(C)c1C(=O)C(Br)(Br)Br)CCCC2(C)C`, for which the result was inactive.

Consider `CCC(CC)Nc1c([N+](=O)[O-])cc2c(c1[N+](=O)[O-])CCCC2C` (configuration not stated), for which the outcome was inactive.

Regarding `Cc1cc2c(c(C)c1C(=O)O)CCCC2(C)C`, the result was inactive.

Consider `CC(=O)c1c(C)cc2c(c1C)CCCC2(C)C`, for which the outcome was inactive.

Take `CC1(C)CCCc2c(F)cc(F)cc21`: the outcome was inactive.

For the compound `O=[N+]([O-])c1cc2c(c([N+](=O)[O-])c1F)CCCC21CCCCC1`, the outcome was inactive.

Regarding `CCC(CC)Nc1c([N+](=O)[O-])cc2c(c1[N+](=O)[O-])CCCC2(C)C(C)C` (configuration not stated), the result was inactive.

Turning to `CC1CCCc2cc(F)ccc21` (configuration not stated), the outcome was inactive.

On to `COc1c2c(cc(F)c1C(C)=O)C(C)(C)CCC2`, for which the result was inactive.

For `CCOC(=O)c1c(C)cc2c(c1C)CCCC2(C)C`, the outcome was inactive.

As to `CCS(=O)(=O)c1c([N+](=O)[O-])cc2c(c1[N+](=O)[O-])CCCC2(C)C`, the result was inactive.

In the case of `CCCN(CCC)c1c([N+](=O)[O-])cc2c(c1[N+](=O)[O-])CCCC2(C)C`, the result was inactive.

Take `CNc1c([N+](=O)[O-])cc2c(c1[N+](=O)[O-])CCCC2(C)C`: the outcome was inactive.

`CCCCOC(=O)c1c(C)cc2c(c1C)CCCC2(C)C`: the outcome was inactive.

Consider `CC(C)C1(C)CCCc2cc(F)ccc21` (configuration not stated), for which the result was inactive.

`Cc1cc2c(c(C)c1C(=O)N(C)C)CCCC2(C)C`: the result was inactive.

Turning to `COc1cc(OC)c2c(c1)C(C)(C)CCC2`, the outcome was inactive.

`CCNc1c([N+](=O)[O-])cc2c(c1[N+](=O)[O-])CCCC2(C)C`: the outcome was inactive.

As to `COc1cc2c(cc1C(=O)O)C(C)(C)CCC2`, the outcome was inactive.

In the case of `CC(C)c1cc(C(C)C)c2c(c1)C(C)(C)CCC2`, the outcome was inactive.

With `CCCC1(CCC)CCCc2c1cc([N+](=O)[O-])c(F)c2[N+](=O)[O-]`, the result was inactive.

Take `CC1(C)CCCc2cc(F)c([N+](=O)[O-])cc21`: the outcome was inactive.

For `COC(=O)c1cc2c(cc1OC)CCCC2(C)C`, the outcome was inactive.

`CN(C)c1c([N+](=O)[O-])cc([N+](=O)[O-])c2c1C(C)(C)CCC2`: the result was inactive.

Consider `CN(C)c1cc2c(cc1[N+](=O)[O-])C(C)(C)CCC2`, for which the result was inactive.

With `CCC(CC)Nc1c([N+](=O)[O-])cc2c(c1[N+](=O)[O-])CCCC21CCCCC1`, the outcome was inactive.

For the compound `CN(C)c1c([N+](=O)[O-])cc2c(c1[N+](=O)[O-])CCCC21CCCCC1`, the outcome was inactive.

On to `CC1CCCc2c1cc([N+](=O)[O-])c(F)c2[N+](=O)[O-]` (configuration not stated), for which the outcome was inactive.

Consider `CC1(C)CCCc2c1cc([N+](=O)[O-])c(F)c2[N+](=O)[O-]`, for which the outcome was inactive.

In the case of `COc1c([N+](=O)[O-])cc2c(c1[N+](=O)[O-])CCCC2(C)C(C)C` (configuration not stated), the result was inactive.

Consider `CCC(CC)Nc1c([N+](=O)[O-])cc2c(c1[N+](=O)[O-])CCCC2(C)C`, for which the result was Active.
